What was measured:
[1] = refrigerator: 2 to 8° C.; cited from earlier work
[2] = Solubility in water; type: physicochemical

| Compound | true solubility of leucovorin (calculated as folinic acid) [1] | solubility in water [2] |
| --- | --- | --- |
| Nc1nc2c(c(=O)[nH]1)N(C=O)C(CNc1ccc(C(=O)N[C@@H](CCC(=O)O)C(=O)O)cc1)CN2 (single isomer, unassigned) [leucovorin] | 3 mg per ml | – |
| Nc1nc2c(c(=O)[nH]1)N(C=O)C(CNc1ccc(C(=O)NC(CCC(=O)[O-])C(=O)[O-])cc1)CN2.[Zn+2] (centres unmarked) [leucovorin zinc] | – | almost insoluble in water |

Source: US9642853B2, “Stable pharmaceutical composition containing folates” (APROFOL AG, priority 2013, dated 2017)
